# Patent publication US20130196937A1, “AGE PRODUCTION INHIBITOR” (ORYZA OIL & FAT CHEMICAL CO., LTD., priority 2010, published 2013)
# Marks after values point to notes of the source that are not given here.
# Legend:
# AGE production = experiment: Test 1: AGE production inhibition (D-glucose + bovine serum albumin, fluorescence); format: biochemical
# Protocol: Put the sample solution ([…]) of the concentration of cherry-blossom extract (Example 1) and cherry-leaf extract (Example 2), as shown in the chart, below, into a phosphate buffer solution (pH: […]) containing D-glucose (10%) and into bovine serum albumin (fraction 5.1%) and leave it out at a temperature of 60 degrees centigrade for two days. Dilute the reaction solution with distilled water until the intensity of fluorescent light reaches about 500, thus determining its intensity (measurement wavelength: […]). Also, the extract is to be diluted with distilled water, and the substance, after being dissolved in DMSO (dimethyl sulphoxide), is to be diluted with a phosphate buffer solution until DMSO concentration is of 1%. Each value in Chart 1 indicates an average value with standard error of the three examples. Asterisks (*, **) mean a significant difference (i.e. *: p<0.05; **: p<0.01) between the processed samples and the unprocessed samples as determined by Dunnett's Multiple Comparison Test.
# [1] = system: normal diploid fibroblast (PDL22-32 cells); experiment: Test 2-2: fibroblast apoptosis caused by CML-collagen (Caspase Assay), extracts and substances; format: cell-based, human
# Protocol: 50 mg of 1 mM HCL was added to 25 mL of bovine skin-derived collagen and dissolved for two hours incubation at the temperature of 37 degrees centigrade, and was shaken as needed. Then, PBS (pH7.4 25 mL) was added to sodium cyanoborohydride (1.42 g) and to glyoxylic acid (0.9 g) and mixed so as to react at the temperature of 37 degrees centigrade for 24 hours. The reaction solution was then put into a dialysis cell of 10,000 molecular mass for a dialysis-with-water test to be conducted for one day and for a dialysis-with-PBS to be conducted for six days. CML-collagen (21 mg) was obtained by freeze-drying the dialysate.
# The fibroblast (7×10^4 cells) was suspended in the D-MEM medium containing FCS (0.5%), penicillin (100 units/mL) and streptomycin ([…]) to be seeded within 96-well plates ([…]). After 24 hours of culture, the dissolved CML-collagen solution (2 mg·mL) and the sample solution ([…]) were added to the medium and cultured for 24 hours. Collagen, instead of CML-collagen, was added to Normal group.
# The rate of cell survival was measured by MIT Assay. The result is shown in Chart 2. At the same time, a microscopic test was done, of which the result of formazan formation of fibroblast (×100) is shown in FIG. 2. Apoptosis was identified by measuring active caspase-3/7 by the fluorescence method, of which the result is shown in Chart 3, below. Each value of Charts 2 and 3 is indicated by the average value with standard error of the six examples. Asterisks (*, **) mean a significant difference (i.e. *: p<0.05; **: p<0.01) between the unprocessed samples and Dunnett's multiple comparison test, and f represents p<0.05 by Fisher's PLSD Test.
# Here, in Test 2-2, respecting the cherry-blossom extract (Example 1), and the cherry-leaf extract (Example 2) and the seven substances contained in the cherry-blossom extract (Example 1): 1-O-(E)-Caffeoyl-β-D-glucopyranoside, 1-O-(E)-Coumaroyl-β-D-Glucopyranosideand, 1-O-(E)-Cinnamoyl-β-D-glucopyranoside, Kaempferol 3-O-3-D-glucopyranoside, Quercetin 3-O-β-D-glucopyranoside, Kaempferol 3-O-(6″-malony)-β-D-glucopyranoside and Quercetin 3-O-(6″-malony)-β-D-glucopyranoside (Examples 3 to 9), the activity against fibroblast apoptosis, caused by CML-collagen, was identified in the same way as in Test 2-1.
# Also, in Test 2-2, PDL22-32 cells were used as the normal diploid fibroblast. As a target for comparison, aminoguanidine hydrochloride which is a medicine for the glycation inhibitor was examined in the same way. Each value of Chart 4 indicates an average value with standard error of the five examples. Asterisks (*, **) mean a significant difference (i.e. *: p<0.05; **: p<0.01) between processed samples and unprocessed samples with CML-collagen, determined by Dunnett's Multiple Comparison Test.
# human diploid fibroblast = experiment: Test 4: AGE production within the fibroblast processed with glyoxal (Western Blotting); format: cell-based; conditions: 1 and 10 mg/mL, 5 days
# Protocol: Test 4 examined the activity of the cherry blossom-extract (Example 1) and of the 1-O-(E)-Caffeoyl-β-D-glucopyranoside (Example 3) against the production of AGE (carbon methyl lysine protein) within the fibroblast (human diploid fibroblast) which was processed with glyoxal.
# Human diploid fibroblast (passage number 30) was suspended in a D-MEM complete culture media, and 20 mL each was seeded within a cell culture dish of 14 cm in diameter. After 48 hours of culture, samples of various concentrations and of […] of glyoxal were added to 80%-confluent cells and cultured for 5 days. After that, each sample was collected and crushed. Then, protein […] was examined by the Western Blotting method using an anti-AGE antibody to detect AGE. […] In FIG. 6, CaGlu means 1-O-(E)-Caffeoyl-β-D-glucopyranoside (Example 3).
compound,measurement,setting,value
O=C(/C=C/c1ccc(O)c(O)c1)O[C@@H]1OC(CO)[C@@H](O)C(O)C1O (stereo partly drawn) [1-O-(E)-Caffeoyl-β-D-glucopyranoside],IC50 of AGE production inhibition,AGE production,>300 µg/mL
same,Inhibition Ratio (%) of AGE production,AGE production; 1 μg/mL,−3.3 ± 0.1%
same,Inhibition Ratio (%) of AGE production,AGE production; 3 μg/mL,0.9 ± 0.1%
same,Inhibition Ratio (%) of AGE production,AGE production; 10 μg/mL,10.7 ± 0.1** %
same,Inhibition Ratio (%) of AGE production,AGE production; 30 μg/mL,19.5 ± 0.3** %
same,Inhibition Ratio (%) of AGE production,AGE production; 100 μg/mL,25.0 ± 0.3** %
same,Inhibition Ratio (%) of AGE production,AGE production; 300 μg/mL,30.0 ± 0.4** %
same,Inhibition Ratio (%) of AGE production,"AGE production; 300 μg/mL, listed as Example 3",30%
same,Inhibition Ratio (%) of fibroblast apoptosis (Caspase Assay),[1]; 1 μg/mL,26.2 ± 0.5* %
same,Inhibition Ratio (%) of fibroblast apoptosis (Caspase Assay),[1]; 3 μg/mL,37.6 ± 1.2%
same,Inhibition Ratio (%) of fibroblast apoptosis (Caspase Assay),[1]; 10 μg/mL,72.2 ± 2.7* %
same,"production of AGE within the fibroblast (anti-AGE antibody, FIG. 6)",human diploid fibroblast,inhibited the production of AGE
